Test results reported in patent US9321791B2, “8-[3-amino-piperidin-1-yl]-xanthines, the preparation thereof and their use as pharmaceutical compositions” (Boehringer Ingelheim International GmbH, priority 2002, dated 2016).

System: rats
Assay: Tolerability after oral administration to rats
Format: in vivo
Conditions: 10 mg/kg

CC#CCn1c(N2CCC[C@@H](N)C2)nc2c1c(=O)n(Cc1ncc3ccccc3n1)c(=O)n2C [2(80), 1-[(quinazolin-2-yl)methyl]-3-methyl-7-(2-butyn-1-yl)-8-((R)-3-amino-piperidin-1-yl)-xanthine]
changes in the animals' behaviour: no changes in the animals' behaviour could be detected
